This experiment concerns the target T1, hNaV1.7 (Homo sapiens, UniProt Q15858).
T1 construct: expressed in transfected cells; host or cells: HEK 293
The experiment can be described thus: Whole-cell patch clamp on hNaV1.7 expressed in HEK 293 cells. It is filed as cell-based. The following applies: for IC50: HEK 293 cells transfected with hNaV1.7 plus human β1 and β2 subunits, room temperature (20–25 °C), 50 ms depolarization to −10 mV from holding −100 mV, mean ± SEM. How it is done:
We maintained human embryonic kidney (HEK) 293 cells at 37 °C in a humidified 5% CO2 incubator in Dulbecco’s Modified Eagle’s Medium (DMEM) supplemented with 10% fetal bovine serum (FBS), 2 mM L-glutamine, 100 units/mL penicillin and 100 µg/mL streptomycin. cDNA genes encoding rat Nav1.2 and mouse Nav1.6 were subcloned into the vectors pcDNA3.1, respectively. We subcloned the gene that encodes hNaV1.7 into the vector pcDNA3.1-mod. We transfected the hNaV1.7 channel (3 μg) together with plasmids β1- (1 μg) and β2-eGFP ([…]), which encode the human β1 and β2 subunits, and Nav1.2 and Nav1.6 together with eGFP in HEK 293 cells using Lipofectamine 2000 (Invitrogen, Carlsbad, CA, USA) per the manufacturer’s instructions.
We performed whole-cell recordings using an EPC 10 patch clamp platform (HEKA, Elektronik, Lambrecht, Germany) at room temperature (20–25 °C). We made suction pipettes with access resistance of 2.0–3.0 MΩ from borosilicate glass capillary tubes (VWR micropipettes; VWR Co., West Chester, PA, USA) using a 2-step vertical microelectrode puller (PC-10; Narishige Co., Ltd., Tokyo, Japan) and compensated for voltage errors using 80% serial-resistance compensation. The standard pipette solution contained (in mM): 140 CsCl, 10 NaCl, 1 ethylene glycol-bis (β-aminoethyl ether)-N,N,N′,N′-tetraacetic acid (EGTA), and 10 HEPES (pH 7.4). The bath solution contained (in mM): 140 NaCl, 2 CaCl2, 1 MgCl2, 5 KCl, 20 4-(2-hydroxyethyl)-1-piperazineethanesulfonic acid (HEPES) and 10 glucose (pH 7.4). We purchased all chemicals from Sigma-Aldrich (St. Louis, MO, USA) and dissolved them in water. Data were acquired using PATCHMASTER software version 2x73 (HEKA Elektronik Dr. Schulze GmbH, Lambrecht, Germany). We filtered macroscopic sodium currents at 5 kHz and sampled them at 20 kHz. We acquired voltage clamp recordings 5 min after establishing a whole-cell configuration to allow adequate equilibration between the micropipette solution and the cell interior. We elicited channel current by 50 milliseconds of depolarization potential to −10 mV from the holding voltage of −100 mV.
We analyzed the data using Igor Pro software version 6.10A (WaveMetrics, Lake Oswego, OR, USA), Sigmaplot software version 10 (Sigma, St. Louis, MO, USA), OriginPro software version 8 (OriginLab Corp., Northampton, MA, USA) and Prism software version 5 (GraphPad Software, San Diego, CA, USA). Concentration–response curves were fitted using the following Hill logistic equation:y = fmax − (fmax − fmin)/(1 + (x/IC50)^n)(1) where fmax and fmin respectively represent the channel’s maximum and minimum responses to toxins, fmin was set to 0, x represents toxin concentration and n is an empirical Hill coefficient. All quantitative results are presented as mean ± standard error of the mean (SEM).
Background: The patch-clamp technique gives a direct electrical read-out from membranes.

The source of these data is PMC6162447, “Engineering Gain-of-Function Analogues of the Spider Venom Peptide HNTX-I, A Potent Blocker of the hNaV1.7 Sodium Channel” (Toxins, 2018).

Bridge positions count the residues as written; N and C are the ends. Peptide text beside a SMILES is read from it. Bounds are passed on as bounds.

T1 sequence (O60939 30-215): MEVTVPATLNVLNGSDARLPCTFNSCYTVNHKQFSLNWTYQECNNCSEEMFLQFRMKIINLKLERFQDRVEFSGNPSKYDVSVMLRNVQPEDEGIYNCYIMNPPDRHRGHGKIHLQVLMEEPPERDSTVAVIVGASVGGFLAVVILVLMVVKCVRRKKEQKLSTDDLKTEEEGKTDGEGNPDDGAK
T1 sequence (Q07699 19-218, further chain): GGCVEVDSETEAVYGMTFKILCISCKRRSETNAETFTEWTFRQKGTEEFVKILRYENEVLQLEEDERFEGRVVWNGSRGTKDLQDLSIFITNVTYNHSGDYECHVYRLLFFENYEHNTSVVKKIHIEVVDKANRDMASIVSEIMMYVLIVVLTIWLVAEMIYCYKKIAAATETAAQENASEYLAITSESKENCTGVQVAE
T1 sequence (Q15858 other isoform, or with tags, fused parts or gaps): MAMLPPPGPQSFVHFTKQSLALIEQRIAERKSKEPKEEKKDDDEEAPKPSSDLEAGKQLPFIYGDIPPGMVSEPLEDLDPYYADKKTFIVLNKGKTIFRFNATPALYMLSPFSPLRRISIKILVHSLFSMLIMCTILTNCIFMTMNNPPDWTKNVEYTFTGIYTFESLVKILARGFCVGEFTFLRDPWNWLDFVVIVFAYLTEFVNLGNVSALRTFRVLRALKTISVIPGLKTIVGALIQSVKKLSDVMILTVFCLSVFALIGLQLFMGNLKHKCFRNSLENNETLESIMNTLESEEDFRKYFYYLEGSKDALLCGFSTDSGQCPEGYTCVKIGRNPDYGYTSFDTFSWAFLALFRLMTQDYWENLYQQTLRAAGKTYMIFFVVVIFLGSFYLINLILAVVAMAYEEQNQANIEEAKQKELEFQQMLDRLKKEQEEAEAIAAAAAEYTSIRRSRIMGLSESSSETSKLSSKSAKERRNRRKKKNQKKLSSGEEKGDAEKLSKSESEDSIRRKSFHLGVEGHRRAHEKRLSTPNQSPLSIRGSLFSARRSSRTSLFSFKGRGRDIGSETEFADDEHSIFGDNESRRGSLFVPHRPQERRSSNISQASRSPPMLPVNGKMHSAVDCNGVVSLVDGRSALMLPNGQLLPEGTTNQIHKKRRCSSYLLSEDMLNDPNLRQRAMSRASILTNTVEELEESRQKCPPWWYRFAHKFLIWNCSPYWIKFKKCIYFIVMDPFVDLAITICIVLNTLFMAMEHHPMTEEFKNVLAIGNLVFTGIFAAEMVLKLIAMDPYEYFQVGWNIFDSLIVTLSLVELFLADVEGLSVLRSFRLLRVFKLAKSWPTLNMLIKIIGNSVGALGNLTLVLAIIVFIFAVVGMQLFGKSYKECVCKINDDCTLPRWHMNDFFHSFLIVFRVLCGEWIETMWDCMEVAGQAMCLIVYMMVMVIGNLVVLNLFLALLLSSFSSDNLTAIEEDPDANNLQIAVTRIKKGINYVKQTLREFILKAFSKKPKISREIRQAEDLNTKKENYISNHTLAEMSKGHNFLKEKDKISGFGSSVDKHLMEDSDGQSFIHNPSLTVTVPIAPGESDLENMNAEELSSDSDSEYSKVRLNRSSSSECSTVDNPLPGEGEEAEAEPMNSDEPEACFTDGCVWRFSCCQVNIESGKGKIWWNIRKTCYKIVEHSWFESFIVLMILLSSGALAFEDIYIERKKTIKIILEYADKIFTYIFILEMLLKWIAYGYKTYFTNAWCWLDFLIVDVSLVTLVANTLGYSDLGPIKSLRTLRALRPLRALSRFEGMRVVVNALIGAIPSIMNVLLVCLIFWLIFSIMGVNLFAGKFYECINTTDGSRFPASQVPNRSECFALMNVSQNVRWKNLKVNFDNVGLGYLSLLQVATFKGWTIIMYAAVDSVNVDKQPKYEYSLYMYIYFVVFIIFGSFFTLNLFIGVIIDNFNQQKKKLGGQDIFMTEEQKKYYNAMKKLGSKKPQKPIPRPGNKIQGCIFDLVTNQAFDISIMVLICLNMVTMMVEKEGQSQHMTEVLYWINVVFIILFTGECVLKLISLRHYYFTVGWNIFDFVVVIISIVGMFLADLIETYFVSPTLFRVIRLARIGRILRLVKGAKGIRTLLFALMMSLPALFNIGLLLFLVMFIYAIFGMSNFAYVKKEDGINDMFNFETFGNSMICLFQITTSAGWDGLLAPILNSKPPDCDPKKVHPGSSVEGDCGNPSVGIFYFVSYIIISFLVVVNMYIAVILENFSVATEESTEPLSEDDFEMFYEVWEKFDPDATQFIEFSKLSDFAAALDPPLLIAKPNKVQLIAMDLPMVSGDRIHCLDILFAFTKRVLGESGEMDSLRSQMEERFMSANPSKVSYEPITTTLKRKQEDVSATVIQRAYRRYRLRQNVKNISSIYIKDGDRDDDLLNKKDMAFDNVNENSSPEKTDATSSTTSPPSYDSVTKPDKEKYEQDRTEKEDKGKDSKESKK

By IC50 is commonly meant the point on the concentration scale where inhibition reaches its midpoint. As for `CC(C)C[C@H](NC(=O)[C@H](Cc1c[nH]c2ccccc12)NC(=O)[C@@H](NC(=O)[C@H](CCCCN)NC(=O)[C@@H]1CSSC[C@@H]2NC(=O)[C@H](CCC(=O)O)NC(=O)[C@H](CC(N)=O)NC(=O)[C@H](CCCCN)NC(=O)CNC(=O)[C@@H]3CCCN3C(=O)[C@H](C(C)C)NC(=O)[C@@H]3CSSC[C@H](NC(=O)[C@H](C)NC(=O)[C@H](Cc4ccc(O)cc4)NC(=O)CNC(=O)[C@H](CO)NC(=O)[C@H](CSSC[C@H](NC(=O)[C@@H](N)CCC(=O)O)C(=O)N[C@@H](CCCCN)C(=O)NCC(=O)N[C@@H](Cc4ccccc4)C(=O)NCC(=O)N[C@@H](CCCCN)C(=O)N[C@@H](CO)C(=O)N3)NC2=O)C(=O)N[C@@H](CC(N)=O)C(=O)N[C@@H](CO)C(=O)N[C@@H](CCCNC(=N)N)C(=O)N[C@@H](CC(=O)O)C(=O)N[C@@H](CCCCN)C(=O)N[C@@H](Cc2c[nH]c3ccccc23)C(=O)N1)C(C)C)C(=O)O` [L32W] (H-ECKGFGKSCVPGKNECCSGYACNSRDKWCKVWL-OH; disulfide 2-17, 9-22, 16-29 (inferred); N-terminus and C-terminus assumed), where the note is “10 µM peptide, HEK 293 cells (Figure 2A–C)”, the “Activity on NaV1.7 at a concentration of 10 µM” value is “negligible activity”. Moreover, for the setting “n ≥ 3”, the IC50 is greater than 10 µM.

As to `CC(C)C[C@H](NC(=O)[C@H](CC(C)C)NC(=O)[C@@H](NC(=O)[C@H](CCCCN)NC(=O)[C@@H]1CSSC[C@@H]2NC(=O)[C@H](CCC(=O)O)NC(=O)[C@H](CC(N)=O)NC(=O)[C@H](CCCCN)NC(=O)CNC(=O)[C@@H]3CCCN3C(=O)[C@H](C(C)C)NC(=O)[C@@H]3CSSC[C@H](NC(=O)[C@H](C)NC(=O)[C@H](Cc4ccc(O)cc4)NC(=O)CNC(=O)[C@H](CO)NC(=O)[C@H](CSSC[C@H](NC(=O)[C@@H](N)CCC(=O)O)C(=O)N[C@@H](CCCCN)C(=O)NCC(=O)N[C@@H](Cc4ccccc4)C(=O)NCC(=O)N[C@@H](CCCCN)C(=O)N[C@@H](CO)C(=O)N3)NC2=O)C(=O)N[C@@H](CO)C(=O)N[C@@H](CO)C(=O)N[C@@H](CCCNC(=N)N)C(=O)N[C@@H](Cc2c[nH]cn2)C(=O)N[C@@H](CCCCN)C(=O)N[C@@H](Cc2c[nH]c3ccccc23)C(=O)N1)C(C)C)C(=O)O` [N23S–D26H] (H-ECKGFGKSCVPGKNECCSGYACSSRHKWCKVLL-OH; disulfide 2-17, 9-22, 16-29), the IC50 (n ≥ 3, SEM) is 0.079 ± 0.004 µM.

With `CC(C)C[C@H](NC(=O)[C@H](Cc1c[nH]c2ccccc12)NC(=O)[C@@H](NC(=O)[C@H](CCCCN)NC(=O)[C@@H]1CSSC[C@@H]2NC(=O)[C@H](CCC(=O)O)NC(=O)[C@H](CC(N)=O)NC(=O)[C@H](CCCCN)NC(=O)CNC(=O)[C@@H]3CCCN3C(=O)[C@H](C(C)C)NC(=O)[C@@H]3CSSC[C@H](NC(=O)[C@H](C)NC(=O)[C@H](Cc4ccc(O)cc4)NC(=O)CNC(=O)[C@H](CO)NC(=O)[C@H](CSSC[C@H](NC(=O)CN)C(=O)N[C@@H](CCCCN)C(=O)NCC(=O)N[C@@H](Cc4ccccc4)C(=O)NCC(=O)N[C@@H](CCCCN)C(=O)N[C@@H](CO)C(=O)N3)NC2=O)C(=O)N[C@@H](CO)C(=O)N[C@@H](CO)C(=O)N[C@@H](CCCNC(=N)N)C(=O)N[C@@H](Cc2c[nH]cn2)C(=O)N[C@@H](CCCCN)C(=O)N[C@@H](Cc2c[nH]c3ccccc23)C(=O)N1)C(C)C)C(=O)O` [E1G–N23S–D26H–L32W] (H-GCKGFGKSCVPGKNECCSGYACSSRHKWCKVWL-OH; disulfide 2-17, 9-22, 16-29), for the setting “n ≥ 3, SEM”, the half-maximal inhibitory concentration (IC50) stood at 0.036 ± 0.007 µM.

With `CC(C)C[C@H](NC(=O)[C@H](CC(C)C)NC(=O)[C@@H](NC(=O)[C@H](CCCCN)NC(=O)[C@@H]1CSSC[C@@H]2NC(=O)[C@H](CCC(=O)O)NC(=O)[C@H](CC(N)=O)NC(=O)[C@H](CCCCN)NC(=O)CNC(=O)[C@@H]3CCCN3C(=O)[C@H](C(C)C)NC(=O)[C@@H]3CSSC[C@H](NC(=O)[C@H](C)NC(=O)[C@H](Cc4ccc(O)cc4)NC(=O)CNC(=O)[C@H](CO)NC(=O)[C@H](CSSC[C@H](NC(=O)CN)C(=O)N[C@@H](CCCCN)C(=O)NCC(=O)N[C@@H](Cc4ccccc4)C(=O)NCC(=O)N[C@@H](CCCCN)C(=O)N[C@@H](CO)C(=O)N3)NC2=O)C(=O)N[C@@H](CO)C(=O)N[C@@H](CO)C(=O)N[C@@H](CCCNC(=N)N)C(=O)N[C@@H](Cc2c[nH]cn2)C(=O)N[C@@H](CCCCN)C(=O)N[C@@H](Cc2c[nH]c3ccccc23)C(=O)N1)C(C)C)C(=O)O` [E1G–N23S–D26H] (H-GCKGFGKSCVPGKNECCSGYACSSRHKWCKVLL-OH; disulfide 2-17, 9-22, 16-29), the half-maximal inhibitory concentration (IC50) (n ≥ 3, SEM) is 0.179 ± 0.024 µM.

As to `CC(C)C[C@H](NC(=O)[C@H](Cc1c[nH]c2ccccc12)NC(=O)[C@@H](NC(=O)[C@H](CCCCN)NC(=O)[C@@H]1CSSC[C@@H]2NC(=O)[C@H](CCC(=O)O)NC(=O)[C@H](CC(N)=O)NC(=O)[C@H](CCCCN)NC(=O)CNC(=O)[C@@H]3CCCN3C(=O)[C@H](C(C)C)NC(=O)[C@@H]3CSSC[C@H](NC(=O)[C@H](C)NC(=O)[C@H](Cc4ccc(O)cc4)NC(=O)CNC(=O)[C@H](CO)NC(=O)[C@H](CSSC[C@H](NC(=O)CN)C(=O)N[C@@H](CCCCN)C(=O)NCC(=O)N[C@@H](Cc4ccccc4)C(=O)NCC(=O)N[C@@H](CCCCN)C(=O)N[C@@H](CO)C(=O)N3)NC2=O)C(=O)N[C@@H](CC(N)=O)C(=O)N[C@@H](CO)C(=O)N[C@@H](CCCCN)C(=O)N[C@@H](Cc2c[nH]cn2)C(=O)N[C@@H](CCCCN)C(=O)N[C@@H](Cc2c[nH]c3ccccc23)C(=O)N1)C(C)C)C(=O)O` [E1G–R25K–D26H–L32W] (H-GCKGFGKSCVPGKNECCSGYACNSKHKWCKVWL-OH; disulfide 2-17, 9-22, 16-29), the IC50 (n ≥ 3, SEM) came to 0.669 ± 0.07 µM.

Consider `CC(C)C[C@H](NC(=O)[C@H](CC(C)C)NC(=O)[C@@H](NC(=O)[C@H](CCCCN)NC(=O)[C@@H]1CSSC[C@@H]2NC(=O)[C@H](CCC(=O)O)NC(=O)[C@H](CC(N)=O)NC(=O)[C@H](CCCCN)NC(=O)CNC(=O)[C@@H]3CCCN3C(=O)[C@H](C(C)C)NC(=O)[C@@H]3CSSC[C@H](NC(=O)[C@H](C)NC(=O)[C@H](Cc4ccc(O)cc4)NC(=O)CNC(=O)[C@H](CO)NC(=O)[C@H](CSSC[C@H](NC(=O)[C@@H](N)CCC(=O)O)C(=O)N[C@@H](CCCCN)C(=O)NCC(=O)N[C@@H](Cc4ccccc4)C(=O)NCC(=O)N[C@@H](CCCCN)C(=O)N[C@@H](CO)C(=O)N3)NC2=O)C(=O)N[C@@H](CC(N)=O)C(=O)N[C@@H](CO)C(=O)N[C@@H](CCCNC(=N)N)C(=O)N[C@@H](Cc2c[nH]cn2)C(=O)N[C@@H](CCCCN)C(=O)N[C@@H](Cc2c[nH]c3ccccc23)C(=O)N1)C(C)C)C(=O)O` [D26H] (H-ECKGFGKSCVPGKNECCSGYACNSRHKWCKVLL-OH; disulfide 2-17, 9-22, 16-29), for which the IC50 (n ≥ 3, SEM) stood at 1.5 ± 0.093 µM.

As for `CC(C)C[C@H](NC(=O)[C@H](CC(C)C)NC(=O)[C@@H](NC(=O)[C@H](CCCCN)NC(=O)[C@@H]1CSSC[C@@H]2NC(=O)[C@H](CCC(=O)O)NC(=O)[C@H](CC(N)=O)NC(=O)[C@H](CCCCN)NC(=O)CNC(=O)[C@@H]3CCCN3C(=O)[C@H](C(C)C)NC(=O)[C@@H]3CSSC[C@H](NC(=O)[C@H](C)NC(=O)[C@H](Cc4ccc(O)cc4)NC(=O)CNC(=O)[C@H](CO)NC(=O)[C@H](CSSC[C@H](NC(=O)CN)C(=O)N[C@@H](CCCCN)C(=O)NCC(=O)N[C@@H](Cc4ccccc4)C(=O)NCC(=O)N[C@@H](CCCCN)C(=O)N[C@@H](CO)C(=O)N3)NC2=O)C(=O)N[C@@H](CC(N)=O)C(=O)N[C@@H](CO)C(=O)N[C@@H](CCCCN)C(=O)N[C@@H](Cc2c[nH]cn2)C(=O)N[C@@H](CCCCN)C(=O)N[C@@H](Cc2c[nH]c3ccccc23)C(=O)N1)C(C)C)C(=O)O` [E1G–R25K–D26H] (H-GCKGFGKSCVPGKNECCSGYACNSKHKWCKVLL-OH; disulfide 2-17, 9-22, 16-29), the IC50 (n ≥ 3, SEM) was determined as 0.766 ± 0.029 µM.
